pIC50: −log10 of the molar value. The source made the active and inactive calls. The rule behind the calls is not given here.
Tests used:
[1] = system: KMS-11; experiment: Induction of apoptosis in human KMS-11 cells assessed as live cells at 0.5 uM incubated for 72 hrs by Annexin V-FITC/PI staining based flow cytometry analysis (reference value: 83.1%); format: functional
[2] = AUClast in ICR mouse at 1 mg/kg, iv measured for 24 hrs by LC-MS/MS analysis; format: ADME, organism-based; parameters: dose 1 mg/kg, time 24 hrs, route iv; settings: in vivo
[3] = system: KMS-11; experiment: Antitumor activity against human KMS-11 cells xenografted in SCID mouse assessed as tumor growth inhibition at 75 mg/kg, po administered daily for 21 days and measured every 3 days relative to control; format: functional; settings: KMS-11, 504 h, time 21 day, read-out: TGI
[4] = target: Histone-lysine N-methyltransferase 2D (Homo sapiens, UniProt O14686); experiment: Inhibition of MLL2 (unknown origin) using SAM as substrate preincubated for 10 mins followed by substrate addition and measured after 4 hrs by HTRF analysis
[5] = system: KMS-11; experiment: Induction of apoptosis in human KMS-11 cells assessed as live cells at 0.2 uM incubated for 72 hrs by Annexin V-FITC/PI staining based flow cytometry analysis (reference value: 83.1%); format: functional
[6] = target: Basement membrane-specific heparan sulfate proteoglycan core protein (Homo sapiens) (UniProt P98160); experiment: Inhibition of HSPG2 transcriptional activation in human KMS-11 cells assessed as reduction in HSPG2 mRNA expression at 0.5 uM by qRT-PCR analysis; format: cell-based
[7] = target: Protein arginine N-methyltransferase 1 (Homo sapiens, UniProt Q99873); experiment: Inhibition of PRMT1 (unknown origin) by AlphaLISA assay
[8] = target: Protransforming growth factor alpha (Homo sapiens) (UniProt P01135); experiment: Inhibition of TGFA transcriptional activation in human KMS-11 cells assessed as reduction in H3K36me2 level in promoter region by ChIP-qPCR analysis; format: cell-based
[9] = system: KMS-11; experiment: Induction of apoptosis in human KMS-11 cells assessed as late apoptotic cells at 0.8 uM incubated for 72 hrs by Annexin V-FITC/PI staining based flow cytometry analysis (reference value: 6.47%); format: functional
[10] = target: Hepatocyte growth factor receptor (Homo sapiens) (UniProt P08581); experiment: Inhibition of MET transcriptional activation in human KMS-11 cells assessed as reduction in H3K36me2 level in promoter region by ChIP-qPCR analysis; format: cell-based
Sequence of Hepatocyte growth factor receptor (Homo sapiens) (P08581 whole entry): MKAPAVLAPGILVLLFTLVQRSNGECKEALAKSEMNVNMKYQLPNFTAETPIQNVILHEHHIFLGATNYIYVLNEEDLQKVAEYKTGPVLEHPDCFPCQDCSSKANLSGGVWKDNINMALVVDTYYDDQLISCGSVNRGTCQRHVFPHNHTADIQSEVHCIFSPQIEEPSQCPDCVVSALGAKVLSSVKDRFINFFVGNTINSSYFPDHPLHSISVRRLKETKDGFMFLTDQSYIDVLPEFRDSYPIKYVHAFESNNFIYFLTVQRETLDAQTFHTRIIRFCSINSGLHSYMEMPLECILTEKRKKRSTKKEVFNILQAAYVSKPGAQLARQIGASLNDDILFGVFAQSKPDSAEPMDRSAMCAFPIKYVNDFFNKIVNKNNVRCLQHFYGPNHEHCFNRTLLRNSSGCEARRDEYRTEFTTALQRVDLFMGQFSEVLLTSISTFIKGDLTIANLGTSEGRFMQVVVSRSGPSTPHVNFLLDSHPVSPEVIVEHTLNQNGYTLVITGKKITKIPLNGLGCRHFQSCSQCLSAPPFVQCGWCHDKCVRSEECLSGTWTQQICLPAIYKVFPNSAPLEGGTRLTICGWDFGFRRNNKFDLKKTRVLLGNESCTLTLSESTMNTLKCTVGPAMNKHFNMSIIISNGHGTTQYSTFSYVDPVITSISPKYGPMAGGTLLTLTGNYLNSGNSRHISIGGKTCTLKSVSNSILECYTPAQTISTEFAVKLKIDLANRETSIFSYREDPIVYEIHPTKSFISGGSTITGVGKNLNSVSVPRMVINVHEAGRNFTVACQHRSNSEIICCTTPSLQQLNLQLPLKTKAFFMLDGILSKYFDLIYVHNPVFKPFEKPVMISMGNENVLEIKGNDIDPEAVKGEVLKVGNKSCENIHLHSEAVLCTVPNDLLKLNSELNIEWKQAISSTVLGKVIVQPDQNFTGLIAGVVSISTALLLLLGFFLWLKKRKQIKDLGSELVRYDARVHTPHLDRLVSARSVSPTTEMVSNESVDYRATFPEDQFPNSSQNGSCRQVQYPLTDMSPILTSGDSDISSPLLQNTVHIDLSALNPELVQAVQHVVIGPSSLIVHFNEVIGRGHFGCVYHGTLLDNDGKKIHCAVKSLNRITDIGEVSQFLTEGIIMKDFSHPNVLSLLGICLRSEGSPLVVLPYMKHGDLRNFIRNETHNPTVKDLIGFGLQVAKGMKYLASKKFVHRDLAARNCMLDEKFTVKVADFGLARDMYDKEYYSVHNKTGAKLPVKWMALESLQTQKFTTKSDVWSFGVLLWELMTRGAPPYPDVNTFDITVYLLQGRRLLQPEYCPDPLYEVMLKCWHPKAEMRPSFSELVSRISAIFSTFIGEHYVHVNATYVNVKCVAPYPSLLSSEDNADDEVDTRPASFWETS

[11] = system: U-937; experiment: Antiproliferative activity against human U-937 cells harboring wild type NSD2 assessed as inhibition of cell growth incubated for 6 days by CCK-8 assay; format: functional, cell-based; settings: U-937, 144 h
[12] = system: KMS-11; experiment: Modulation of FoxO signaling pathway in human KMS-11 cells at 1 uM incubated for 48 hrs by RNA-Seq analysis; format: cell-based; settings: filed as modulator
[13] = target: Ras-related protein R-Ras2 (Homo sapiens) (UniProt P62070); experiment: Inhibition of RRAS2 transcriptional activation in human KMS-11 cells assessed as reduction in H3K36me2 level in promoter region by ChIP-qPCR analysis; format: cell-based
Sequence of Ras-related protein R-Ras2 (Homo sapiens) (P62070 whole entry): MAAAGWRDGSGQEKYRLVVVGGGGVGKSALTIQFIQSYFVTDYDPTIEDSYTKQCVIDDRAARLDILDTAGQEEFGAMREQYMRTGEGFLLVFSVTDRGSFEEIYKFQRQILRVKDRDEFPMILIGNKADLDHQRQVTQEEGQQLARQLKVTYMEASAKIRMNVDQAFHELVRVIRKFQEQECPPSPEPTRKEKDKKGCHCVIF

[14] = target: Neural cell adhesion molecule 1 (Homo sapiens) (UniProt P13591); experiment: Inhibition of NCAM1 transcriptional activation in human KMS-11 cells assessed as reduction in H3K36me2 level in promoter region by ChIP-qPCR analysis; format: cell-based
Sequence of Neural cell adhesion molecule 1 (Homo sapiens) (P13591 whole entry): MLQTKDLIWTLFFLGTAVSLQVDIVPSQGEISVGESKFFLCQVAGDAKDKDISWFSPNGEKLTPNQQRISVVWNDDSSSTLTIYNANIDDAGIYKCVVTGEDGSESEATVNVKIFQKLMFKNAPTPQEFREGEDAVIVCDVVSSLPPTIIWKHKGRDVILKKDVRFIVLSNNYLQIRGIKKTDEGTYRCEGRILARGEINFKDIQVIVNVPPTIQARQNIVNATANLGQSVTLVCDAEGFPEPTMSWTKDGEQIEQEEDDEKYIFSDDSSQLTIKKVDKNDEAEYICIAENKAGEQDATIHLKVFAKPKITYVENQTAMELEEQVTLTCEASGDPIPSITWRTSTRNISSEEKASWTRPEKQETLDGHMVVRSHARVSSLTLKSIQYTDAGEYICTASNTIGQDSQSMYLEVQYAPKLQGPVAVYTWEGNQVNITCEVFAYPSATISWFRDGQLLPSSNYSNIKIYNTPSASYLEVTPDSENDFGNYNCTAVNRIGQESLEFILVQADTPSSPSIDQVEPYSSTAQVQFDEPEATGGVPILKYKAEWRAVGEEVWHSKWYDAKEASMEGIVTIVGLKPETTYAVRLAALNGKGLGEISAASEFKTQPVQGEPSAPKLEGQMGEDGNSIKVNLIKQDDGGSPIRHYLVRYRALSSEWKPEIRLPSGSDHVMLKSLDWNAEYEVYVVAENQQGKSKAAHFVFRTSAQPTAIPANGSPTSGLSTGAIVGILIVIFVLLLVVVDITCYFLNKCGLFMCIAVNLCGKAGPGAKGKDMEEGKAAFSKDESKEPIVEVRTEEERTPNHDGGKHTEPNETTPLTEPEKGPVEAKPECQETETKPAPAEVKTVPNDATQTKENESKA

[15] = Observed clearance in ICR mouse at 1 mg/kg, iv measured for 24 hrs by LC-MS/MS analysis; format: ADME, organism-based; settings: in vivo
[16] = system: CMK; experiment: Antiproliferative activity against human CMK cells harboring wild type NSD2 assessed as inhibition of cell growth incubated for 6 days by CCK-8 assay; format: functional, cell-based; settings: 144 h
[17] = system: KMS-11; experiment: Induction of apoptosis in human KMS-11 cells assessed as live cells at 0.8 uM incubated for 72 hrs by Annexin V-FITC/PI staining based flow cytometry analysis (reference value: 83.1%); format: functional
[18] = AUClast in ICR mouse at 3 mg/kg, po measured for 24 hrs by LC-MS/MS analysis; format: ADME, organism-based; parameters: dose 3 mg/kg, time 24 hrs, route po; settings: in vivo
[19] = target: Serine/threonine-protein kinase mTOR (Homo sapiens) (UniProt P42345); experiment: Modulation of mTOR signaling pathway in human KMS-11 cells at 1 uM incubated for 48 hrs by RNA-Seq analysis; format: cell-based; settings: filed as modulator
[20] = system: OCI-AML2; experiment: Antiproliferative activity against human OCI-AML2 cells harboring wild type NSD2 assessed as inhibition of cell growth incubated for 6 days by CCK-8 assay; format: functional, cell-based; settings: OCI-AML2, 144 h
[21] = system: OPM-2; experiment: Antiproliferative activity against NSD2 translocated human OPM-2 cells assessed as inhibition of cell growth incubated for 6 days by CCK-8 assay; format: functional, cell-based; settings: OPM-2, 144 h
[22] = Half life in ICR mouse at 1 mg/kg, iv measured for 24 hrs by LC-MS/MS analysis; format: ADME, organism-based; settings: in vivo
[23] = target: Hepatocyte growth factor receptor (Homo sapiens) (UniProt P08581); experiment: Inhibition of MET transcriptional activation in human KMS-11 cells assessed as reduction in MET mRNA expression at 0.5 uM by qRT-PCR analysis; format: cell-based
[24] = system: U2932; experiment: Antiproliferative activity against human U2932 cells assessed as inhibition of cell growth incubated for 6 days by CCK-8 assay; format: functional, cell-based; settings: U2932, 144 h
[25] = target: Histone-lysine N-methyltransferase 2A (Homo sapiens, UniProt Q03164); experiment: Inhibition of MLL1 (unknown origin) using SAM as substrate preincubated for 10 mins followed by substrate addition and measured after 4 hrs by HTRF analysis
[26] = system: MOLM-13; experiment: Antiproliferative activity against human MOLM-13 cells harboring wild type NSD2 assessed as inhibition of cell growth incubated for 6 days by CCK-8 assay; format: functional, cell-based; settings: MOLM-13, 144 h
[27] = system: HL-60; experiment: Antiproliferative activity against human HL-60 cells harboring wild type NSD2 assessed as inhibition of cell growth incubated for 6 days by CCK-8 assay; format: functional, cell-based; settings: HL-60, 144 h
[28] = Tmax in ICR mouse at 3 mg/kg, po measured for 24 hrs by LC-MS/MS analysis; format: ADME, organism-based; settings: in vivo
[29] = system: KMS-11; experiment: Induction of apoptosis in human KMS-11 cells assessed as dead cells at 0.5 uM incubated for 72 hrs by Annexin V-FITC/PI staining based flow cytometry analysis (reference value: 6.48%); format: functional
[30] = system: KMS-11; experiment: Induction of apoptosis in human KMS-11 cells assessed as dead cells at 0.2 uM incubated for 72 hrs by Annexin V-FITC/PI staining based flow cytometry analysis (reference value: 6.48%); format: functional
[31] = system: KMS-11; experiment: Induction of apoptosis in human KMS-11 cells assessed as early apoptotic cells at 0.5 uM incubated for 72 hrs by Annexin V-FITC/PI staining based flow cytometry analysis (reference value: 3.96%); format: functional
[32] = target: Histone-lysine N-methyltransferase, H3 lysine-36 specific (Homo sapiens, UniProt Q96L73); experiment: Inhibition of NSD1 (unknown origin)
Sequence of Histone-lysine N-methyltransferase, H3 lysine-36 specific (Q96L73 whole entry): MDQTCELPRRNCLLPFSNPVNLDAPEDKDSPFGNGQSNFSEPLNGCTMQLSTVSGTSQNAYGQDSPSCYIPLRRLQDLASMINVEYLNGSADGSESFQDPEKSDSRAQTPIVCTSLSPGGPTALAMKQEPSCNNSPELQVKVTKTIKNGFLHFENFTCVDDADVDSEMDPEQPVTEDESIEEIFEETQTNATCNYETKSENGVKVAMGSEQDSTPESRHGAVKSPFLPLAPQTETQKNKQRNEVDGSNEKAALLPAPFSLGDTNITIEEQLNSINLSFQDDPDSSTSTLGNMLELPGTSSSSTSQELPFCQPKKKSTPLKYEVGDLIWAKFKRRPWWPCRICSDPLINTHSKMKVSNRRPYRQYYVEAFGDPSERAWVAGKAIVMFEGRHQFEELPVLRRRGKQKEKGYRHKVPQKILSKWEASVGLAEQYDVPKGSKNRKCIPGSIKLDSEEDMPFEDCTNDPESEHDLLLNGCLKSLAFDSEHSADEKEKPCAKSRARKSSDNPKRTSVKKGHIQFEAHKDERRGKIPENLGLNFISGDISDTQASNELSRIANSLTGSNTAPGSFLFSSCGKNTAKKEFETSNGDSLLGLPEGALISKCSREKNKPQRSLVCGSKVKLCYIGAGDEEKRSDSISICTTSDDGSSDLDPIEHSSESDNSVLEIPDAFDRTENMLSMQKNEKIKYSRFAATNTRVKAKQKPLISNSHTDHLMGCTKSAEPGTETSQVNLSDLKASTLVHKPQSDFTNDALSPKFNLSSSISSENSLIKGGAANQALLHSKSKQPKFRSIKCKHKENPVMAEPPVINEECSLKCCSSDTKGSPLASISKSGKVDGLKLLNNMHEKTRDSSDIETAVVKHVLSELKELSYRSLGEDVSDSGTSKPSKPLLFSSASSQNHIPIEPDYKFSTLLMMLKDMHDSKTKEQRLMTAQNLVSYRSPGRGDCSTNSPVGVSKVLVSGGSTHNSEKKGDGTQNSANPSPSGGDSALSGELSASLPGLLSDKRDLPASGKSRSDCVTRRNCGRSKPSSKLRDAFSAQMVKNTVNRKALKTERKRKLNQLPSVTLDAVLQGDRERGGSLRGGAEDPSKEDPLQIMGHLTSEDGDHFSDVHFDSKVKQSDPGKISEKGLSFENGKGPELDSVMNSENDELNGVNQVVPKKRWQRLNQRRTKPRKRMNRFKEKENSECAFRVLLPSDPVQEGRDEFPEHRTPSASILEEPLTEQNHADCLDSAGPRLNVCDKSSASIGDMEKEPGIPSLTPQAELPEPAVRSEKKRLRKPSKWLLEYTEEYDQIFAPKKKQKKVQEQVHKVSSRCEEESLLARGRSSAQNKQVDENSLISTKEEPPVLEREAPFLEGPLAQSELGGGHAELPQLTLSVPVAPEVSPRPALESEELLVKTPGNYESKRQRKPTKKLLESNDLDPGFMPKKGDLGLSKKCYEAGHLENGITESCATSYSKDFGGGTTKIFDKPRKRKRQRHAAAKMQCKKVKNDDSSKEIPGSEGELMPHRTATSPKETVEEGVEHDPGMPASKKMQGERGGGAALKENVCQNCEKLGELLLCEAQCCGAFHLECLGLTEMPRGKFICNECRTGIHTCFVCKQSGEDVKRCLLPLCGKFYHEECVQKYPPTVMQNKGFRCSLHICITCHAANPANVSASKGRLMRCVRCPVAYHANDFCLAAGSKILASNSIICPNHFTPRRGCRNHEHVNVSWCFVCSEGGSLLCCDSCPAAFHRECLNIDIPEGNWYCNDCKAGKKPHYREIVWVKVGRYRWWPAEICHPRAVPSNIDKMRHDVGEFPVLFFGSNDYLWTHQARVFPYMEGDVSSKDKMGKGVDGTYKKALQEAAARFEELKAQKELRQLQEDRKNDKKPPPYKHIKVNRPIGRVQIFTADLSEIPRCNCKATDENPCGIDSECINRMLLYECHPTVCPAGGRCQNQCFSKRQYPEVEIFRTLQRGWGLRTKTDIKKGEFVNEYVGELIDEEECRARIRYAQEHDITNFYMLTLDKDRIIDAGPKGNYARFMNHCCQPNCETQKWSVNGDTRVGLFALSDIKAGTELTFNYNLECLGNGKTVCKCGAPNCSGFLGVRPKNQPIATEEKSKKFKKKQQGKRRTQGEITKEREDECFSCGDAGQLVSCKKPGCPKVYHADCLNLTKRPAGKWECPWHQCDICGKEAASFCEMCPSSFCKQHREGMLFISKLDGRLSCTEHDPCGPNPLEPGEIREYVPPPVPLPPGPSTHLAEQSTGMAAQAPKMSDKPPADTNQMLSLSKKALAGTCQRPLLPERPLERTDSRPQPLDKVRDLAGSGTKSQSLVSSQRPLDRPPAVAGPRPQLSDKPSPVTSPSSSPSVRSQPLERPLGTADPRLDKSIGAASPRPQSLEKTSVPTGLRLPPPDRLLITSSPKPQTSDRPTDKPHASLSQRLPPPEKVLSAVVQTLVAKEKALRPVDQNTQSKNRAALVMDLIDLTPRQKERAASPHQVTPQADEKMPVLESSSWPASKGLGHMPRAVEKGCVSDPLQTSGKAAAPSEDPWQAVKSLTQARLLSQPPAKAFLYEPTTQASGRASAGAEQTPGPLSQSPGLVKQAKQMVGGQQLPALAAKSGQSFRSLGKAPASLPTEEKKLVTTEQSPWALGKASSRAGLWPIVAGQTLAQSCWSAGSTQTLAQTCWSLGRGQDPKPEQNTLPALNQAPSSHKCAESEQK

[33] = system: RS4-11; experiment: Antiproliferative activity against human RS4-11 cells harboring NSD2 E1099K mutant assessed as inhibition of cell growth incubated for 6 days by CCK-8 assay; format: functional, cell-based; settings: RS4-11, 144 h
[34] = Cmax in ICR mouse at 3 mg/kg, po measured for 24 hrs by LC-MS/MS analysis; format: ADME, organism-based; parameters: dose 3 mg/kg, time 24 hrs, route po; settings: in vivo
[35] = system: Daudi; experiment: Antiproliferative activity against human Daudi cells assessed as inhibition of cell growth incubated for 6 days by CCK-8 assay; format: functional, cell-based; settings: 144 h

## CC#CC(=O)NC12CC(NC3=C(Cl)C(=O)c4ncccc4C3=O)(C1)C2
[1]
  Activity: 63.8%
[2]
  AUC(0-t) at 24 h: 5180 ng·h/mL
[3]
  inhibition in vivo at 75 mg/kg: 56%
[4]
  pIC50: < 5.00
[5]
  Activity: 81.3%
[6]
  inhibition: Active
[7]
  pIC50: < 5.00
[8]
  inhibition: Active
[9]
  Activity: 19.7%
[10]
  inhibition: Active
[11]
  pIC50: 5.31
[12]
  Activity: Active
[13]
  inhibition: Active
[14]
  inhibition: Active
[15]
  clearance: 3.8 mL/min/kg
[16]
  pIC50: 5.59
[17]
  Activity: 55%
[18]
  AUC(0-t) at 24 h: 42700 ng·h/mL
[19]
  Activity: Active
[20]
  pIC50: 5.59
[21]
  pIC50: 5.68
[22]
  half-life: 512 min
[23]
  inhibition: Active
[24]
  pIC50: 5.04
[25]
  pIC50: < 5.00
[26]
  pIC50: 5.50
[27]
  pIC50: 5.58
[28]
  Tmax: 1.5 h
[29]
  Activity: 6.33%
[30]
  Activity: 6.54%
[31]
  Activity: 14.1%
[32]
  pIC50: 6.16
[33]
  pIC50: 6.52
[34]
  Cmax: 4780 ng/mL
[35]
  pIC50: 4.89

Source: ChEMBL document CHEMBL5316318, “Structural Modification and Pharmacological Evaluation of Substituted Quinoline-5,8-diones as Potent NSD2 Inhibitors” (J Med Chem, 2023)
